Laboratory results taken from patent publication US20200080053A1, “USE OF PEPTIDE COMPOUNDS FOR PROMOTING SURVIVAL, GROWTH AND CELL DIFFERENTIATION” (Axoltis Pharma, priority 2016, published 2020).
Square brackets hold non-standard residues; d marks the D form. Ends that are not written are not given here. Abu = CC[C@H](N)C(=O)O

Tests used:
Type in all cases: cell-based
[1] = system: human mesenchymal stem cells (hMSC); assay: Neural differentiation of hMSCs: immunocytochemical analysis (Nestin, MAP-2); conditions: bFGF; for MAP-2 marker expression (immunocytochemistry staining) / Nestine marker expression (immunocytochemistry staining): 2% FBS, with or without peptide coating (FIG. 8); for Nestine expression (staining intensity): with or without peptide coating, compared to the control condition (FIG. 8)
Procedure: (§1) To investigate the neural differentiation capacity of the peptides, 25 cm^2 flasks and 12-wells culture plates were coated with sterile aqueous solutions of either NX210 or NS640 at a concentration of 80 μg/cm^2. Coatings were carried out at 37° C. and 5% CO2 over-night prior to cell plating.
(§2) On Day 0 (D0), hMSC were seeded at a concentration of 3,000 cells/cm^2 in pre-coated 25 cm^2 flasks or 12-well culture plates in complete medium and culture was placed at 37° C. in a humid environment and under 5% CO2. After 24h, medium was changed and replaced by different combinations of media containing either: MEMalpha—bFGF 12.5 ng/mL—FBS 2%—P/S 0.1%; MEMalpha—bFGF 12.5 ng/mL—FBS 10%—P/S 0.1%; MEMalpha—FBS 2%—P/S 0.1% (control condition); MEMalpha—FBS 10%—P/S 0.1% (control condition). The cells were placed at 37° C. in a humid environment and under 5% CO2, and medium was changed twice a week. On Day 8, medium was replaced by medium containing ATRA in the place of bFGF and thus was changed with: MEMalpha—ATRA […]—FBS 2%—P/S 0.1%; MEMalpha—ATRA 20 μM—FBS 10%—P/S 0.1%; MEMalpha—FBS 2%—P/S 0.1% (control condition); MEMalpha—FBS 10%—P/S 0.1% (control condition). The cells were placed at 37° C. in a humid environment and under 5% CO2. Medium was changed twice a week. On Day 15 (D15), cells were harvested by trypsinization for mRNA extraction or fixed immunocytochemical analysis.
Assessment of differentiation was performed by gene expression after extraction of mRNA at various time point (DO, D1, D8 and D15), and immunocytochemical analysis performed at the end of the culture period (D15).
Immunocytochemical analyses were carried out on cells fixed in 4% paraformaldehyde and using standard protocols. After blocking with Triton 1×0.1%/BSA 5% during 30 min, cells were incubated with antibodies directed against Nestin (Millipore) or MAP-2 (Sigma) overnight at +4° C. After washing, appropriate FITC or Cyandidine-5 labelled secondary antibody are added. Nuclei were counterstained with Hoescht 33258 (Sigma). Obervations were performed using Leica TCS LSI system.

[2] = system: human mesenchymal stem cells (hMSC); assay: Cell proliferation of hMSCs depending on the culture conditions; conditions: for effect on cell proliferation (number of MSCs): whatever the conditions / FBS concentration (2% or 10% FBS); for number of MSC: add-on of ATRA (from J5)
Excerpt: Adult human bone marrow mononuclear cells Ficoll-extracted from two donors were obtained from Lonza. Cells were passaged once a week. The human mesenchymal stem cells (hMSC) were selected by plastic adherence and expanded by plating 50 000 cells/cm^2 in Modified Eagle Medium Alpha (MEMalpha, MacoPharma) supplemented with 10% Fetal Bovine Serum (FBS, PAA Laboratoires) and 0.1% Penicilline/Streptomycine (P/S, Lonza). The culture medium was changed after 3 days and then every day. After 2 to 5 weeks of culture at 37° C. in a humid environment and under 5% CO2, hMSC were harvested by trypsinization. The phenotype was confirmed by FACS analysis (BD Bioscience, BD LSR II) with CD73, CD90 and CD105 (positive), as well as CD34 and CD45 (negative) (Table 1).
as §1
as §2, with “On Day 8, medium was replaced by medium containing ATRA in the place of bFGF and” left out

[3] = system: human mesenchymal stem cells (hMSC); assay: Neural differentiation of hMSCs: gene expression by real-time PCR
Procedure: as §1
as §2, with “On Day 15 (D15), cells were harvested by trypsinization for mRNA extraction or fixed immunocytochemical analysis.” left out
Total RNA was extracted using RNAeasy total purification kit following instructions of the manufacturer (Qiagen). cDNA were generated using a High-Capacity cDNA Reverse Transcription kit (Applied Biosystems) as described by the manufacturer.
The expression levels of genes (GFAP, Musashi 1, Nestin, Beta3-Tubuline, MAP-2 and GAPDH) were analyzed by real-time PCR using TaqMan gene Expression Master Mix (Applied Biosystems) on the Applied Biosystems 7900 Real time PCR system (Life technologies). Samples were analyzed in triplicates. Data were normalized using the GAPDH gene as an internal control and relative quantification (RQ) of the genes in a sample was determined according to the equation 2^−Δct.

[4] = patient no 1, bFGF 10% without ATRA (FIG. 6)
[5] = patient no 1, bFGF 10% without ATRA, with respect to J0 (FIG. 6)
[6] = patient no 1, day 5, bFGF 10% without ATRA (FIG. 6)
[7] = patient no 2, bFGF 10% without ATRA (FIG. 7)
[8] = patient no 2, bFGF 10% without ATRA, with respect to J0 (FIG. 7)

bFGF: growth factor added to the hMSC culture medium at 12.5 ng/mL
MAP-2 marker expression (immunocytochemistry staining) [1]: increases the expression
Nestine marker expression (immunocytochemistry staining) [1]: increases the expression
Nestine expression (staining intensity) ([1]; 10% FBS): increases Nestine expression
effect on cell proliferation (number of MSCs) [2]: positive effect
Induction of gene expression: MAP-2 P2 ([3]; 2% FBS, Patient no2): 3
Musashi-1 expression [3, 4]: decrease
Nestin expression [3, 4]: decrease
expression of MAP-2 [3, 5]: 2.3 ×
expression of βIII Tubulin [3, 5]: 9.3 ×
Nestin expression [3, 6]: 0.6 ×
MAP-2 expression ([3]; patient no 2, D5, with bFGF (FIG. 7)): decreased
Musashi-1 expression [3, 7]: decrease
Nestin expression [3, 7]: decrease
Nestin expression ([3]; patient no 2, bFGF 10% without ATRA, with or without coating (FIG. 7)): 0.6 ×
expression of MAP-2 [3, 8]: 2.3 ×
expression of βIII Tubulin [3, 8]: 9.3 ×

W-S-G-W-S-S-Abu-S-R-S-Nm (WSGWSS[Abu]SRS-NH2; N-terminus assumed; SMILES CC[C@H](NC(=O)[C@H](CO)NC(=O)[C@H](CO)NC(=O)[C@H](Cc1c[nH]c2ccccc12)NC(=O)CNC(=O)[C@H](CO)NC(=O)[C@@H](N)Cc1c[nH]c2ccccc12)C(=O)N[C@@H](CO)C(=O)N[C@@H](CCCNC(=N)N)C(=O)N[C@@H](CO)C(N)=O) [NS640]
MAP-2 marker expression (immunocytochemistry staining) [1]: stronger staining
Nestine marker expression (immunocytochemistry staining) [1]: stronger staining
MAP-2 protein presence ([1]; 10% FBS, peptide coating (FIG. 8)): makes possible to observe MAP-2 protein presence
Nestine expression (staining intensity) ([1]; 10% FBS): maximized
effect on cell proliferation (number of MSCs) [2]: no effect
effect of peptide coating on the increase in Nestin, βIII-Tubulin and MAP-2 gene expression ([3]; bFGF then ATRA, 2% FBS, peptide coating 80 μg/cm2): does not modify this increase
MAP-2 expression ([3]; bFGF then ATRA, 10% FBS, peptide coating, vs ×0.75 without peptide (FIG. 5)): 1.46 ×
Nestin expression ([3]; bFGF then ATRA, 10% FBS, peptide coating, vs ×1.2 without peptide (FIG. 5)): 1.5 ×
Nestin expression [3, 6]: 2 ×
βIII-Tubuline expression ([3]; patient no 2, after 5 days of culture, with bFGF (FIG. 7)): maximized

CC1=C(/C=C/C(C)=C/C=C/C(C)=C/C(=O)O)C(C)(C)CCC1 [ATRA, reference compound]
number of MSC ([2]; 2% FBS): small difference
number of MSC ([2]; 10% FBS): decrease
